# The supplement of paper PMC10307832
# Legend:
# Experiment in all cases: relative viability (nuclei count vs DMSO), 5 days (fraction); higher = more cells survive
# ChaGo-K-1 = system: ChaGo-K-1
# Procedure, shortened: (§1)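 Dosing by pin tool came one day after lung cancer cell lines were seeded in 1536-well plates, using either one drug or a fixed anchor-drug dose plus five library-drug doses (not always all listed) in √10 steps. After 5 days, nuclei were counted on 4× images. Relative viability is treated-well nuclei count divided by vehicle-well nuclei count, and values are medians of duplicate plates.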
# EMC-BAC-2 = system: EMC-BAC-2
# Procedure, shortened: as §1
# EPLC-272H = system: EPLC-272H
# Procedure, shortened: as §1
# HCC-366 = system: HCC-366
# Procedure, shortened: as §1
# HCC-44 = system: HCC-44
# Procedure, shortened: as §1
# HCC-78 = system: HCC-78
# Procedure, shortened: as §1
# HCC-827 = system: HCC-827
# Procedure, shortened: as §1
# LCLC-103H = system: LCLC-103H
# Procedure, shortened: as §1
# LK-2 = system: LK-2
# Procedure, shortened: as §1
# LOU-NH91 = system: LOU-NH91
# Procedure, shortened: as §1
# LU99A = system: LU99A
# Procedure, shortened: as §1
# LXF-289 = system: LXF-289
# Procedure, shortened: as §1
# NCI-H1563 = system: NCI-H1563
# Procedure, shortened: as §1
# NCI-H1666 = system: NCI-H1666
# Procedure, shortened: as §1
# NCI-H1975 = system: NCI-H1975
# Procedure, shortened: as §1
# NCI-H2085 = system: NCI-H2085
# Procedure, shortened: as §1
# NCI-H2126 = system: NCI-H2126
# Procedure, shortened: as §1
# NCI-H23 = system: NCI-H23
# Procedure, shortened: as §1
# NCI-H2405 = system: NCI-H2405
# Procedure, shortened: as §1
# NCI-H3122 = system: NCI-H3122
# Procedure, shortened: as §1
# RERF-LC-KJ = system: RERF-LC-KJ
# Procedure, shortened: as §1
# SK-LU-1 = system: SK-LU-1
# Procedure, shortened: as §1
# SW 1573 = system: SW 1573
# Procedure, shortened: as §1
smiles,measurement,setting,value
C[C@@H]1CN(CC(=O)Nc2ccc3c(c2)Cc2cccc(-c4cc(=O)cc(N5CCOCC5)o4)c2S3)C[C@H](C)O1 + C[C@@H](Oc1cc(-c2cnn(C3CCNCC3)c2)cnc1N)c1c(Cl)ccc(F)c1Cl [Crizotinib] (partner 1 µM),relative viability,ChaGo-K-1; first compound 0.1265 µM,1.09
same,relative viability,ChaGo-K-1; first compound 0.4 µM,1.21
same,relative viability,ChaGo-K-1; first compound 4 µM,1.13
same,relative viability,EMC-BAC-2; first compound 0.04 µM,0.57
same,relative viability,EMC-BAC-2; first compound 0.1265 µM,0.761
same,relative viability,EMC-BAC-2; first compound 0.4 µM,0.75
same,relative viability,EMC-BAC-2; first compound 4 µM,0.819
same,relative viability,EPLC-272H; first compound 0.04 µM,1.27
same,relative viability,EPLC-272H; first compound 0.1265 µM,0.971
same,relative viability,EPLC-272H; first compound 0.4 µM,0.997
same,relative viability,EPLC-272H; first compound 4 µM,0.83
same,relative viability,HCC-366; first compound 0.04 µM,0.5
same,relative viability,HCC-366; first compound 0.1265 µM,0.532
same,relative viability,HCC-366; first compound 0.4 µM,0.414
same,relative viability,HCC-366; first compound 4 µM,0.414
same,relative viability,HCC-44; first compound 0.04 µM,0.853
same,relative viability,HCC-44; first compound 0.1265 µM,0.828
same,relative viability,HCC-44; first compound 0.4 µM,0.699
same,relative viability,HCC-44; first compound 4 µM,0.526
same,relative viability,HCC-78; first compound 0.04 µM,0.344
same,relative viability,HCC-78; first compound 0.1265 µM,0.349
same,relative viability,HCC-78; first compound 0.4 µM,0.308
same,relative viability,HCC-78; first compound 4 µM,0.348
same,relative viability,HCC-827; first compound 0.04 µM,1
same,relative viability,HCC-827; first compound 0.1265 µM,0.817
same,relative viability,HCC-827; first compound 0.4 µM,0.929
same,relative viability,HCC-827; first compound 4 µM,0.983
same,relative viability,LCLC-103H; first compound 0.04 µM,1.08
same,relative viability,LCLC-103H; first compound 0.1265 µM,1.03
same,relative viability,LCLC-103H; first compound 0.4 µM,0.984
same,relative viability,LCLC-103H; first compound 4 µM,1.03
same,relative viability,LK-2; first compound 0.1265 µM,0.198
same,relative viability,LK-2; first compound 0.4 µM,0.242
same,relative viability,LK-2; first compound 4 µM,0.191
same,relative viability,LOU-NH91; first compound 0.04 µM,0.764
same,relative viability,LOU-NH91; first compound 0.1265 µM,0.752
same,relative viability,LOU-NH91; first compound 0.4 µM,0.948
same,relative viability,LOU-NH91; first compound 4 µM,0.72
same,relative viability,LU99A; first compound 0.04 µM,0.523
same,relative viability,LU99A; first compound 0.1265 µM,0.636
same,relative viability,LU99A; first compound 0.4 µM,0.64
same,relative viability,LU99A; first compound 4 µM,0.569
same,relative viability,LXF-289; first compound 0.04 µM,0.777
same,relative viability,LXF-289; first compound 0.1265 µM,0.877
same,relative viability,LXF-289; first compound 0.4 µM,0.814
same,relative viability,LXF-289; first compound 4 µM,0.799
same,relative viability,NCI-H1563; first compound 0.04 µM,0.852
same,relative viability,NCI-H1563; first compound 0.1265 µM,0.849
same,relative viability,NCI-H1563; first compound 0.4 µM,0.688
same,relative viability,NCI-H1563; first compound 4 µM,0.747
same,relative viability,NCI-H1666; first compound 0.04 µM,0.928
same,relative viability,NCI-H1666; first compound 0.1265 µM,1.05
same,relative viability,NCI-H1666; first compound 0.4 µM,1.11
same,relative viability,NCI-H1666; first compound 4 µM,0.661
same,relative viability,NCI-H1975; first compound 0.04 µM,0.947
same,relative viability,NCI-H1975; first compound 0.1265 µM,0.905
same,relative viability,NCI-H1975; first compound 0.4 µM,0.937
same,relative viability,NCI-H1975; first compound 4 µM,0.781
same,relative viability,NCI-H2085; first compound 0.04 µM,0.922
same,relative viability,NCI-H2085; first compound 0.1265 µM,0.88
same,relative viability,NCI-H2085; first compound 0.4 µM,0.773
same,relative viability,NCI-H2085; first compound 4 µM,0.665
same,relative viability,NCI-H2126; first compound 0.04 µM,1.05
same,relative viability,NCI-H2126; first compound 0.1265 µM,1.02
same,relative viability,NCI-H2126; first compound 0.4 µM,1.05
same,relative viability,NCI-H2126; first compound 4 µM,1.02
same,relative viability,NCI-H23; first compound 0.04 µM,0.521
same,relative viability,NCI-H23; first compound 0.1265 µM,0.487
same,relative viability,NCI-H23; first compound 0.4 µM,0.369
same,relative viability,NCI-H23; first compound 4 µM,0.487
same,relative viability,NCI-H2405; first compound 0.04 µM,0.754
same,relative viability,NCI-H2405; first compound 0.1265 µM,0.855
same,relative viability,NCI-H2405; first compound 0.4 µM,0.893
same,relative viability,NCI-H2405; first compound 4 µM,0.8
same,relative viability,NCI-H3122; first compound 0.04 µM,0.349
same,relative viability,NCI-H3122; first compound 0.1265 µM,0.324
same,relative viability,NCI-H3122; first compound 0.4 µM,0.264
same,relative viability,NCI-H3122; first compound 4 µM,0.282
same,relative viability,RERF-LC-KJ; first compound 0.04 µM,0.861
same,relative viability,RERF-LC-KJ; first compound 0.1265 µM,0.779
same,relative viability,RERF-LC-KJ; first compound 0.4 µM,0.909
same,relative viability,RERF-LC-KJ; first compound 4 µM,0.722
same,relative viability,SK-LU-1; first compound 0.04 µM,1.08
same,relative viability,SK-LU-1; first compound 0.1265 µM,0.905
same,relative viability,SK-LU-1; first compound 0.4 µM,0.902
same,relative viability,SK-LU-1; first compound 4 µM,0.605
same,relative viability,SW 1573; first compound 0.04 µM,0.904
same,relative viability,SW 1573; first compound 0.1265 µM,0.918
same,relative viability,SW 1573; first compound 0.4 µM,0.744
same,relative viability,SW 1573; first compound 4 µM,0.746
CC(C)Oc1cc(Nc2nc(N[C@@H](C)c3ccc(F)cn3)ncc2Cl)n[nH]1 [AZ23] + CS(=O)(=O)N1CCN(Cc2cc3nc(-c4cccc5[nH]ncc45)nc(N4CCOCC4)c3s2)CC1 [Pictilisib] (partner 1 µM),relative viability,ChaGo-K-1; first compound 0.01 µM,0.658
same,relative viability,ChaGo-K-1; first compound 0.03162 µM,1.18
same,relative viability,ChaGo-K-1; first compound 0.3162 µM,0.661
same,relative viability,EMC-BAC-2; first compound 0.01 µM,0.535
same,relative viability,EMC-BAC-2; first compound 0.03162 µM,0.576
same,relative viability,EMC-BAC-2; first compound 0.3162 µM,0.51
same,relative viability,EPLC-272H; first compound 0.01 µM,0.258
same,relative viability,EPLC-272H; first compound 0.03162 µM,0.349
same,relative viability,HCC-366; first compound 0.01 µM,0.14
same,relative viability,HCC-366; first compound 0.03162 µM,0.145
same,relative viability,HCC-366; first compound 0.3162 µM,0.147
same,relative viability,HCC-44; first compound 0.01 µM,0.727
same,relative viability,HCC-44; first compound 0.03162 µM,0.629
same,relative viability,HCC-44; first compound 0.3162 µM,0.572
same,relative viability,HCC-78; first compound 0.01 µM,0.192
same,relative viability,HCC-78; first compound 0.03162 µM,0.195
same,relative viability,HCC-78; first compound 0.3162 µM,0.195
same,relative viability,HCC-827; first compound 0.01 µM,1.11
same,relative viability,HCC-827; first compound 0.03162 µM,0.978
same,relative viability,HCC-827; first compound 0.3162 µM,1.11
same,relative viability,LCLC-103H; first compound 0.01 µM,0.571
same,relative viability,LCLC-103H; first compound 0.03162 µM,0.555
same,relative viability,LCLC-103H; first compound 0.3162 µM,0.533
same,relative viability,LK-2; first compound 0.03162 µM,0.499
same,relative viability,LK-2; first compound 0.3162 µM,0.59
same,relative viability,LOU-NH91; first compound 0.01 µM,0.483
same,relative viability,LOU-NH91; first compound 0.03162 µM,0.525
same,relative viability,LOU-NH91; first compound 0.3162 µM,0.528
same,relative viability,LU99A; first compound 0.01 µM,0.292
same,relative viability,LU99A; first compound 0.03162 µM,0.386
same,relative viability,LU99A; first compound 0.3162 µM,0.294
same,relative viability,LXF-289; first compound 0.01 µM,0.969
same,relative viability,LXF-289; first compound 0.03162 µM,0.818
same,relative viability,LXF-289; first compound 0.3162 µM,0.788
same,relative viability,NCI-H1563; first compound 0.01 µM,0.682
same,relative viability,NCI-H1563; first compound 0.03162 µM,0.653
same,relative viability,NCI-H1563; first compound 0.3162 µM,0.674
same,relative viability,NCI-H1666; first compound 0.01 µM,0.51
same,relative viability,NCI-H1666; first compound 0.03162 µM,0.559
same,relative viability,NCI-H1666; first compound 0.3162 µM,0.417
same,relative viability,NCI-H1975; first compound 0.01 µM,0.307
same,relative viability,NCI-H1975; first compound 0.03162 µM,0.327
same,relative viability,NCI-H1975; first compound 0.3162 µM,0.298
same,relative viability,NCI-H2085; first compound 0.01 µM,0.556
same,relative viability,NCI-H2085; first compound 0.03162 µM,0.563
same,relative viability,NCI-H2085; first compound 0.3162 µM,0.446
same,relative viability,NCI-H2126; first compound 0.01 µM,0.485
same,relative viability,NCI-H2126; first compound 0.03162 µM,0.514
same,relative viability,NCI-H2126; first compound 0.3162 µM,0.452
same,relative viability,NCI-H23; first compound 0.03162 µM,0.543
same,relative viability,NCI-H23; first compound 0.3162 µM,0.448
same,relative viability,NCI-H2405; first compound 0.01 µM,0.412
same,relative viability,NCI-H2405; first compound 0.03162 µM,0.575
same,relative viability,NCI-H2405; first compound 0.3162 µM,0.429
same,relative viability,NCI-H3122; first compound 0.01 µM,0.658
same,relative viability,NCI-H3122; first compound 0.03162 µM,0.598
same,relative viability,NCI-H3122; first compound 0.3162 µM,0.579
same,relative viability,RERF-LC-KJ; first compound 0.01 µM,0.546
same,relative viability,RERF-LC-KJ; first compound 0.03162 µM,0.507
same,relative viability,RERF-LC-KJ; first compound 0.3162 µM,0.502
same,relative viability,SK-LU-1; first compound 0.01 µM,0.408
same,relative viability,SK-LU-1; first compound 0.03162 µM,0.599
same,relative viability,SK-LU-1; first compound 0.3162 µM,0.553
same,relative viability,SW 1573; first compound 0.01 µM,0.674
same,relative viability,SW 1573; first compound 0.03162 µM,0.606
same,relative viability,SW 1573; first compound 0.3162 µM,0.455
